Like-named read-outs stand apart in the source and are kept apart here.
Legend:
[1] = test system: NCI-H1975 lung cancer cells; test: Fibrotic gene expression analysis by RNA sequencing; format: cell-based; conditions: 1 μM, 24 h vs DMSO
Procedure: (§1) 250000 HCC827 (ATCC; CRL 2868) cells/well or 200000 NCI-H1975 (ATCC; CRL 5908) cells/well were seeded in 6-well dishes (Greiner Bio-One, 7657160) the day before drug treatment in RPMI medium containing 10% FCS and 2 mM L-Glutamine. […] Subsequently cells were washed 3 times with 2 ml PBS and lysed in 300 μl lysis buffer (RA1+1% TCEP [Sigma 646547]). RNA is extracted according to Macherey-Nagel NucleoSpin 8 RNA Kit protocol for vacuum (740698.5) for RNA extraction and RNA is eluted in H2O. RNA Library preparation and sequqnening was done externally. In short, RNA sequencing libraries were generated using TruSeq RNA Sample Prep Kit v2 following manufacturer's recommendations and index codes were added to attribute sequences to each sample. Samples were sequenced using an Illumnia platform, with paired-end reads. Illumina SBS technology utilizes a proprietary reversible terminator-based method that detects single bases as they are incorporated into DNA template strands. The original data obtained from the high throughput sequencing platforms were transformed to sequenced reads by base calling. Raw data are recorded in a FASTQ file which contains sequenced reads and corresponding sequencing quality information and were further processed to obtain transcripts per million values (TPM) for variable genes.

[2] = test system: HCC827 lung cancer cells; test: as above; format: cell-based; conditions: 1 μM, 24 h vs DMSO
Procedure: as §1

[3] = test system: TGF-β1 induced α-smooth muscle actin (αSMA) production by IPF diseased donor's lung fibroblast; test: Fibroblast-to-Myofibroblast Transition (FMT) assay; format: cell-based; conditions: for IC50: Fibroblast, 72 h, 1.25 ng/ml TGF-β1, 72 h, read-out: IC50 αSMA, Log (converted); for Potential toxicity Log [M]: concentration with >25% cell loss (DAPI nuclei); for Max. Percentage Inhibition (PIN), [%]: αSMA
Procedure: Lung fibroblasts from 3 IPF donors (Pat1-3) were seeded for automated high-content/high-throughput microscopy. At day 2 cell culture medium was refreshed in the wells and fibroblast grown until day 5, at which point drug treatment was initiated.
Drug addition was done 1 h before stimuli addition (1.25 ng/ml TGF-β1). For trigger controls wells with fibroblasts were treated with medium (unstimulated control) or 1.25 ng/ml TGF-β1 (stimulated control). For assay controls fibroblasts were treated with 1.25 ng/ml TGF-β1+0.1% DMSO (unstimulated control) or 1.25 ng/ml TGF-β1+1 μM SB525334 (positive control for inhibition). Reference compound and clinically approved drug nintedanib was added as concentration response curve (CRC) with 8-points in a semi-Log dilution starting from 10 μM.
Wells were fixed with 4% paraformaldehyde and stained for α-smooth muscle actin (αSMA) expression using immunofluorescence and with DAPI to assess nuclei number per well. Image acquisition and high content analysis (HCA) of αSMA and DAPI was done on a high content microscope.
(§2) Analysis of αSMA/FN1: Images were segmented and quantificatied for αSMA/FN1 immunoreactivity by an HCA algorithm, with density x area (DxA) output. Data were normalized from raw αSMA/FN1 (DxA) to percentage inhibition (PIN) values, on a plate-to-plate basis
(§3) [formula] • μp is the average αSMA/FN1 value of the positive control (TGF-β1+1 μM SB525334) • μn is the average of αSMA/FN1 value of the vehicle control (TGF-β1+0.1% DMSO) • Xi is the compound αSMA/FN1 value
(§4) Analysis of % Remaining cells: DAPI fluorescence applied for HCA-based quantification of the number of imaged cells, on a plate-to-plate basis.
(§5) [formula] • μn is the average numbers of nuclei of the vehicle control (TGF-β1+0.1% DMSO) • Xi is the compound number of nuclei

[4] = test system: TGF-β1 induced Fibronectin 1 (FN1) production by IPF diseased donor's bronchial epithelial cells; test: Epithelial-to-Mesenchymal Transition (EMT) assay; format: cell-based; parameters: Δ Percentage Inhibition (PIN), [%]: concentration or dose not given beside the values; conditions: for IC50: Epithelial cell, 72 h, 5.0 ng/ml TGF-β1, 72 h, read-out: IC50 FN1, Log (converted); for Δ Percentage Inhibition (PIN), [%]: FN1
Procedure: Bronchial epithelial cells (BEC) from 3 IPF donors (PatA-C) were seeded for automated high-content/high-throughput microscopy. At day 2 cell culture medium was refreshed in the wells and cells grown until day 5, at which drug treatment was initiated.
Drug addition was done 1 h before stimuli addition (5.0 ng/ml TGF-β1). For trigger controls wells with BEC were treated with medium (unstimulated control) or 5.0 ng/ml TGF-β1 (stimulated control). For assay controls fibroblasts were treated with 5.0 ng/ml TGF-β1+0.1% DMSO (unstimulated control) or 5.0 ng/ml TGF-β1+1 μM SB525334 (positive control for inhibition). The reference compound and clinically approved drug nintedanib was added as concentration response curve (CRC) with 8-points in a semi-Log dilution staring from 10 μM. […] Wells were fixed with 4% paraformaldehyde and stained for Fibronectin (FN1) expression using immunofluorescence and with DAPI to assess nuclei number per well. Image acquisition and high content analysis (HCA) of FN1 and DAPI was done on a high content microscope.
as §2, §3, §4, §5

[5] = target: T1, CBP bromodomain (Homo sapiens, UniProt Q92793); test: CBP bromodomain binding assay (TR-FRET); conditions: 1 hour incubation at room temperature
T1 construct: purchased Cayman chemicals 600850
T1 sequence (Q92793 1085-1192 limits assumed): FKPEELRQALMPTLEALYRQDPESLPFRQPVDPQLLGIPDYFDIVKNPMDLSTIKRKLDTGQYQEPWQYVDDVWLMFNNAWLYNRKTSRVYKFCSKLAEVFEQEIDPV
Procedure: Compounds solutions of 10 mM in DMSO were pre-diluted in DSMO to 25× stock solutions in DMSO. These were then diluted down to 4× in Assay buffer. A dilution series in Assay buffer was performed keeping the DMSO concentration stable. 5 μl compound in assay buffer was transferred into the assay plate (provided by assay kit) and the TR-FRET assay Cayman chemicals; 600850) was performed using the manufacture's instructions. After 1 hour incubation at room temperature in the darks, assay plates were read in a Tecan M1000 plate reader using the TR-FRET mode (top read; excitation 340 nm bandwidth 20 nM; emission 620 nm bandwidth 7 nM; gain optimal determined for the first well, number of flashes: 5; flash frequency 100 Hz; integration time: 500 μs, lag time: 100 μs, room temperature). The TR-FRET ratio was calculated by dividing 670 nm emission by 620 nm emission. […] Values were log transformed and non-linear regression with variable slope (4 parameters) was used to fit values to a dose-response curve to evaluate EC50 values (see table 5 below).

COc1cncc(-c2cc(Nc3cccc(F)c3)nc([C@@H]3CC[C@H](C)N(C(C)=O)C3)n2)c1 [Compound 00004]
expression of genes up-regulated during fibrotic disease (MMP, FN1, COL1A1), mRNA abundance (TPM) [1]: reduces expression of genes
expression of genes up-regulated during fibrotic disease (MMP, FN1, COL1A1), mRNA abundance (TPM) [2]: reduces expression of genes
IC50 ([3]; Pat1 lung fibroblast donor): 1260 nM
IC50 ([3]; Pat2 lung fibroblast donor): 2510 nM
IC50 ([3]; Pat3 lung fibroblast donor): 2000 nM
inhibition of TGF-β1-mediated αSMA expression ([3]; all 3 IPF donors' lung fibroblast): full concentration-dependent inhibition
Potential toxicity Log [M] ([3]; Pat1): >−5.2 Log [M]
Potential toxicity Log [M] ([3]; Pat2): >−5.2 Log [M]
Potential toxicity Log [M] ([3]; Pat3): >−5.2 Log [M]
Max. Percentage Inhibition (PIN), [%] ([3]; Pat1 lung fibroblast donor): 90.3%
Max. Percentage Inhibition (PIN), [%] ([3]; Pat2 lung fibroblast donor): 127.1%
Max. Percentage Inhibition (PIN), [%] ([3]; Pat3 lung fibroblast donor): 105.1%
inhibition of TGF-β1-mediated FN1 expression ([4]; BEC from 2 IPF donors): full concentration-dependent inhibition
inhibition of TGF-β1-mediated FN1 expression ([4]; BEC from one IPF donor, partial = ΔPIN <75): partial
modulation of the number of nuclei ([4]; BEC, indicative of absence of potential cytotoxic side-effects): No modulation
IC50 ([4]; PatA BEC donor): 5010 nM
IC50 ([4]; PatB BEC donor): 1000 nM
IC50 ([4]; PatC BEC donor): 2000 nM
Δ Percentage Inhibition (PIN), [%] ([4]; PatA BEC donor): 62.5%
Δ Percentage Inhibition (PIN), [%] ([4]; PatB BEC donor): 84.9%
Δ Percentage Inhibition (PIN), [%] ([4]; PatC BEC donor): 116.3%

CC(=O)N1C[C@H](c2nc(Nc3cc(F)c4cc[nH]c4c3)cc(-c3cccnc3)n2)CC[C@@H]1C [Compound 00040]
EC50 [5]: < 200 nM

CC(=O)N1C[C@H](c2nc(Nc3ccccc3)cc(-c3cncnc3)n2)CC[C@@H]1C [Compound 00062]
EC50 [5]: 200 to 1000 nM

CC(=O)N1C[C@H](c2nc(Nc3ccccc3)cc(-c3cncc4[nH]ccc34)n2)CC[C@@H]1C [Compound 00063]
EC50 [5]: < 200 nM

CC(=O)N1C[C@H](c2nc(Nc3cncc(C)c3)cc(-c3cncc4[nH]ccc34)n2)CC[C@@H]1C [Compound 00075]
EC50 [5]: < 200 nM

CC(=O)N1C[C@H](c2nc(Nc3ccncc3)cc(-c3cccnc3)n2)CC[C@@H]1C [Compound 00077]
EC50 [5]: 200 to 1000 nM

COC(=O)c1ccc2c(c1)NC(=O)/C2=C(\Nc1ccc(N(C)C(=O)CN2CCN(C)CC2)cc1)c1ccccc1 [Nintedanib, reference compound]
IC50 ([3]; Pat1 lung fibroblast donor): 631 nM
IC50 ([3]; Pat2 lung fibroblast donor): 398 nM
IC50 ([3]; Pat3 lung fibroblast donor): 200 nM
Potential toxicity Log [M] ([3]; Pat1): >−5.5 Log [M]
Potential toxicity Log [M] ([3]; Pat2): >−7.0 Log [M]
Potential toxicity Log [M] ([3]; Pat3): >−6.0 Log [M]
Max. Percentage Inhibition (PIN), [%] ([3]; Pat1 lung fibroblast donor): 109.3%
Max. Percentage Inhibition (PIN), [%] ([3]; Pat2 lung fibroblast donor): 101%
Max. Percentage Inhibition (PIN), [%] ([3]; Pat3 lung fibroblast donor): 98.4%
IC50 ([4]; PatA BEC donor): 10000 nM
IC50 ([4]; PatC BEC donor): 63.1 nM
Δ Percentage Inhibition (PIN), [%] ([4]; PatA BEC donor): 45.9%
Δ Percentage Inhibition (PIN), [%] ([4]; PatB BEC donor): 81.7%
Δ Percentage Inhibition (PIN), [%] ([4]; PatC BEC donor): 72.1%
